Data set [1] concerns mouse model for endotoxemia. The conditions noted are these: in vivo.
The target in data set [2] is T1, human IL-1β (Pepro Tech) (human, UniProt P01584 117-269).
T1 construct: Commercial protein added at 200 ng/mL to the LPS solution
In words: batch adsorption on peptide-immobilized silica beads, in an LPS solution (500 ng/mL LPS) containing IL-1β.

Data on two molecules can be found in patent US20110098214A1 (priority 2005, published 2011).

Square brackets hold non-standard residues; d marks the D form. Ends that are not written are not given here. Peptide text beside a SMILES is read from it.

Take `CC[C@H](C)[C@H](NC(=O)[C@H](CO)NC(=O)[C@H](CO)NC(=O)[C@@H](NC(=O)[C@H](CO)NC(=O)[C@H](CO)NC(=O)[C@H](CO)NC(=O)[C@H](Cc1ccc(O)cc1)NC(=O)[C@H](N)CCCCN)[C@@H](C)CC)C(=O)N[C@@H](CCCNC(=N)N)C(=O)NCC(=O)NCC(=O)N[C@@H](CC(C)C)C(=O)N[C@@H](CC(C)C)C(=O)N[C@@H](CC(C)C)C(=O)N[C@@H](CC(C)C)C(=O)N[C@@H](CC(C)C)C(=O)N[C@@H](CC(C)C)C(=O)N[C@@H](CC(C)C)C(=O)O` [Wine Opener, kYSSSISSIRGGLLLLLLL] (H-[dK]YSSSISSIRGGLLLLLLL-OH; N-terminus and C-terminus assumed): the “short term toxicity (weight)” value in data set [1] is on record as “no short term toxicity which affected weight”.

B1: peptide Li5 C (peptide)
peptide: KNYSSSISSIHAC
modifications: also: immobilized on silica beads via C-terminal Cys thiol
notes: In the assay it was immobilized on propionyl chloride functionalized silica gel beads
Turning to B1, in data set [2], the binding result is on record as “no binding (tested: 200 ng/mL IL-1β)”.
